The values that follow come from ChEMBL document CHEMBL6083183, “Discovery and Hit to Lead Optimization of Macrocyclic Peptides as Novel Tropomyosin Receptor Kinase A Antagonists” (J Med Chem, 2024).

The target in data set [1] is T1, High affinity nerve growth factor receptor (Homo sapiens, UniProt P04629). As to the kind of experiment: Binding affinity to Fc-tagged human TrkA extracellular domain by SPR method. (In general: In SPR one partner is held on a chip, and binding of the other changes the refractive index at the surface.)
T1 sequence (P04629 whole entry, the tested form may be a part): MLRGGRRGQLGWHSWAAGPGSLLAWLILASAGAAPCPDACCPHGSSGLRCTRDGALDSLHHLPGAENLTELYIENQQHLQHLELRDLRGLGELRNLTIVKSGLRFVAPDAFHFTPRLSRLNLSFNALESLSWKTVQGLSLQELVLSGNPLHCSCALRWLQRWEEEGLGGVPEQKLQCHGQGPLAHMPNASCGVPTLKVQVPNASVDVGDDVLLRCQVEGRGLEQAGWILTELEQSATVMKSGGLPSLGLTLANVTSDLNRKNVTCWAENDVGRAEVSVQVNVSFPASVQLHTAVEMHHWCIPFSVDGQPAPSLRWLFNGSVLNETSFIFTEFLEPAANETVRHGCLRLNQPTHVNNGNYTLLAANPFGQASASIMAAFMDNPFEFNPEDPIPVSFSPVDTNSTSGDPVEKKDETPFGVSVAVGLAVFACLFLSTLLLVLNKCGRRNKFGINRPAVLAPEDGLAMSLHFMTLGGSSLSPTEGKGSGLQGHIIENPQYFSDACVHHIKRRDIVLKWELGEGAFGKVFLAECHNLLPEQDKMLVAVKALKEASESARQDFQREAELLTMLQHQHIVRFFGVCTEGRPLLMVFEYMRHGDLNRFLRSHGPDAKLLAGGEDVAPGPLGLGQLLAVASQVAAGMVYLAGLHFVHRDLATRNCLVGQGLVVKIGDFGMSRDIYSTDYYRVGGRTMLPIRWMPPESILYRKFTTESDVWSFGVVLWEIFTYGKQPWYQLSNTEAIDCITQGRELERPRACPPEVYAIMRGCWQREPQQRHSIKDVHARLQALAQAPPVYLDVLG
The species entered for data set [2] is Homo sapiens. As to the kind of experiment: (§1) Inhibition of Fc-tagged human TrkA extracellular domain to biotinylated human NGF protein-protein interaction preincubated for 1 hr followed by NGF addition and measured after 3 hrs by ELISA. Conditions: time 4.0 hrs. A general note: An ELISA detects its analyte on a solid surface through an enzyme-linked reagent.

A short description of data set [3]: Stability in rat serum assessed as half-life incubated for 22 to 24 hrs by LC-MS/MS method. The data set is classed as ADME, cell-free. The following applies: time 22-24 hrs.
Data set [4] concerns the target T1, High affinity nerve growth factor receptor. Nature of the data set: Inhibition of human TrkA assessed as beta-galactosidase activity pretreated with NGF followed by […] and measured after 180 mins by pathhunter assay.
Data set [5] is described as follows: Total clearance in Sprague-Dawley rat at 1 umol/kg, iv administered as cassette dose measured upto 6 hrs by LC-MS/MS method. Type of data set: ADME, organism-based. Conditions: in vivo, dose 1 µmol/kg.
A short description of data set [6]: AUC in Sprague-Dawley rat at 1 umol/kg, iv administered as cassette dose measured upto 6 hrs by LC-MS/MS method. The following applies: in vivo, dose 1 µmol/kg. The data set is classed as ADME, organism-based.
Data set [7] is described as follows: Stability in human serum assessed as compound degradation incubated for 22 hrs by LC-MS/MS method. Type of data set: ADME, cell-free.
Data set [8] can be described thus: Stability in human serum assessed as half-life incubated for 22 to 24 hrs by LC-MS/MS method. Conditions: time 22-24 hrs. Type of data set: ADME, cell-free.
Data set [9] has as its system Rattus norvegicus. Nature of the data set: Analgesic activity in rat Brennan's incision pain model assessed as reduction in pain at 10 mg/kg, iv administered 3 times at every 2 hrs and measured after 6 hrs. Type of data set: functional, organism-based.
For data set [10], the system named is Rattus norvegicus. As to the kind of experiment: Analgesic activity in iv dosed rat Brennan's incision pain model assessed as reduction in pain administered 3 times at every 2 hrs and measured after 6 hrs. Type of data set: functional, organism-based. The following applies: dose 3-30 mg/kg.
The test system of data set [11] is Rattus norvegicus. As to the kind of experiment: Analgesic activity in rat Brennan's incision pain model assessed as reduction in pain at 30 mg/kg, iv administered 3 times at every 2 hrs and measured after 6 hrs. The data set is classed as functional. Details: scale not given: the % may be the effect or the level left.
Data set [12] can be described thus: Toxicity in rat at 30 mg/kg, iv administered 3 times at every 2 hrs and measured after 6 hrs. Conditions: in vivo. Type of data set: organism-based.
Data set [13] is described as follows: as §1.

Calls of active or inactive are those of the source. Bridge positions count the residues as written; N and C are the ends. Square brackets hold non-standard residues; d marks the D form. Peptide text beside a SMILES is read from it. NMeF = CN[C@@H](Cc1ccccc1)C(=O)O; Sar = CNCC(=O)O

In data set [1], `CC[C@H](C)[C@@H]1NC(=O)CNC(=O)[C@H](Cc2ccc(O)cc2)NC(=O)[C@H](Cc2ccccc2)NC(=O)CNC(=O)[C@H](Cc2c[nH]cn2)NC(=O)[C@@H]2CCCN2C(=O)[C@H](Cc2ccc(O)cc2)NC(=O)[C@H](CC(C)C)NC(=O)[C@H](Cc2ccccc2)NC(=O)[C@H](Cc2ccccc2)NC(=O)CSC[C@@H](C(=O)NCC(N)=O)NC(=O)[C@H](C(C)C)NC1=O` ({CH2CO}-FFLYPHGFYGIVCG-NH2; thioether N-13) had a Kd of 8.5 nM. Also, the inhibition result in data set [2] was “inactive”.
With `CC(C)C[C@@H]1NC(=O)[C@H](CCCNC(=N)N)NC(=O)CNC(=O)[C@H](Cc2ccccc2)N(C)C(=O)CNC(=O)[C@H](Cc2c[nH]c3ccccc23)NC(=O)[C@H](Cc2ccc(O)cc2)NC(=O)[C@H](CO)NC(=O)[C@H](C(C)C)NC(=O)[C@H](CO)NC(=O)[C@H](CCCCN)NC(=O)[C@H](Cc2ccccc2)NC(=O)CSC[C@@H](C(=O)N(C)CC(N)=O)NC(=O)[C@H](Cc2c[nH]cn2)NC(=O)[C@H](CC(N)=O)NC(=O)[C@H](Cc2ccc(O)cc2)NC(=O)[C@H](Cc2ccc(O)cc2)NC(=O)[C@H](CO)NC1=O` ({CH2CO}-FKSVSYWG[NMeF]GRLSYYNHC[Sar]-NH2; thioether N-18), in data set [3], the half-life is 11.3 h. Further, in data set [4], the concentration for half-maximal inhibition (IC50) was 23 nM. The clearance in data set [5] was found to be 66.2 mL/min/kg. The same compound gave an exposure (AUC) at 6 h in data set [6] of 0.305 µM·h. Besides, in data set [7], the Stability entry is listed as “Unstable”.
In the case of `CC(C)C[C@@H]1NC(=O)[C@H](C(C)C)NC(=O)CNC(=O)[C@H](Cc2ccccc2)N(C)C(=O)CNC(=O)[C@H](Cc2c[nH]cn2)NC(=O)[C@H](Cc2ccc(O)cc2)NC(=O)[C@H](CCC(=O)O)NC(=O)[C@H](C(C)C)NC(=O)[C@H](CO)NC(=O)[C@H](CO)NC(=O)[C@H](Cc2ccccc2)NC(=O)CSC[C@@H](C(=O)NCC(N)=O)NC(=O)[C@H](Cc2c[nH]cn2)NC(=O)[C@H](CC(=O)O)NC(=O)[C@H](Cc2ccc(O)cc2)NC(=O)[C@H](Cc2c[nH]c3ccccc23)NC(=O)[C@H](C(C)C)NC1=O` ({CH2CO}-FSSVEYHG[NMeF]GVLVWYDHCG-NH2; thioether N-18), the half-life in data set [3] and in data set [8] was greater than 72 h throughout. Besides, the IC50 in data set [4] amounted to 21 nM. In data set [5], this compound yielded a clearance of 13.9 mL/min/kg. The exposure (AUC) at 6 h in data set [6] turned out to be 1.2 µM·h. The Activity entry in data set [9] was “Active; Activity Comparable To 1 Mg/Kg Morphine”; in [10], “Dose-dependent-effect”; in data set [11], 40%; in [12], “Non-toxic”.
Consider `CC(C)C[C@@H]1NC(=O)[C@H](CC(N)=O)NC(=O)CNC(=O)[C@H](Cc2ccccc2)N(C)C(=O)CNC(=O)[C@H](Cc2c[nH]c3ccccc23)NC(=O)[C@H](Cc2ccc(O)cc2)NC(=O)[C@H](CO)NC(=O)[C@H](C(C)C)NC(=O)[C@H](CO)NC(=O)[C@H](CO)NC(=O)[C@H](Cc2ccccc2)NC(=O)CSC[C@@H](C(=O)NCC(N)=O)NC(=O)[C@H](Cc2c[nH]cn2)NC(=O)[C@H](CO)NC(=O)[C@H](Cc2ccc(O)cc2)NC(=O)[C@H](Cc2c[nH]c3ccccc23)NC(=O)[C@H](C(C)C)NC1=O` ({CH2CO}-FSSVSYWG[NMeF]GNLVWYSHCG-NH2; thioether N-18), for which the Kd in data set [1] was 15.9 nM. Besides, the half-life in data set [3] was 47.8 h; in [8], 9.3 h. The half-maximal inhibitory concentration (IC50) came to 425 nM in [4] and 10.8 nM in data set [13].

As usually defined, the Kd is the constant that tells how readily two partners part at equilibrium. The term half-life denotes the time needed for the level to fall by half in the phase considered. One may read the IC50 as the point on the concentration scale where inhibition reaches its midpoint. A word on the clearance: it is a measure of how efficiently the substance is removed, as volume per time. A word on the AUC: it is the area under the concentration-time curve, a measure of exposure.
